Reference: patent US12637465B2, “Pharmaceutically acceptable salts of sepiapterin” (PTC Therapeutics MP, Inc., priority 2018, dated 2026)

Key:
Assay type in all cases: physicochemical
[1] = Solid form stability study of salts and/or co-crystals at 25° C./60% RH and 40° C./75% RH
Description: The stability of the prepared salts and/or co-crystals was analyzed after 1 and 2 weeks at 25° C. and 60% relative humidity and 40° C. and 75% relative humidity. […] None of the phosphate, tartrate, or nicotinate salts and/or co-crystals underwent a form change during the stability testing, and each of them retained greater than 97% purity over the two weeks of the study. In fact, both the tartrate and nicotinate both retained greater than 99% purity.

[2] = Form change/disproportionation of residual solids by XRPD after suspension in water or Medisca Oral Mix; settings: for Form change (residual solids, XRPD): RT
Description: The kinetic solubility was evaluated for nicotinate, phosphate, L-tartrate, and fumarate salts and/or co-crystals of sepiapterin in water and […] Oral Mix. X-ray powder diffraction (XRPD) was performed for the residual solids to identify form change/disproportionation. Solids were suspended into the media with target conc. of 7 mg/mL (calculated by freebase). […] Oral Mix after 1 hour. […] Oral Mix.

[3] = Kinetic solubility in water and Medisca Oral Mix (HPLC solubility, purity and pH of supernatant); settings: RT; for Purity (area %) of supernatant: for reference only; for Purity (area %) of supernatant / pH: listed as fumarate salt and/or co-crystal
Description: The kinetic solubility was evaluated for nicotinate, phosphate, L-tartrate, and fumarate salts and/or co-crystals of sepiapterin in water and […] Oral Mix. X-ray powder diffraction (XRPD) was performed for the residual solids to identify form change/disproportionation. Solids were suspended into the media with target conc. of 7 mg/mL (calculated by freebase).

SMILES: C[C@H](O)C(=O)C1=Nc2c(nc(N)[nH]c2=O)NC1 [Benzenesulfonate, sepiapterin]
- Purity (Area %) ([1]; 1 week, 25° C./60% RH): 90.68 Area %
- Purity vs. initial (%) ([1]; 1 week, 25° C./60% RH): 100.5%
- Purity (Area %) ([1]; 1 week, 40° C./75% RH): 82.63 Area %
- Purity vs. initial (%) ([1]; 1 week, 40° C./75% RH): 91.6%
- Purity (Area %) ([1]; 2 weeks, 25° C./60% RH): 86.37 Area %
- Purity vs. initial (%) ([1]; 2 weeks, 25° C./60% RH): 95.8%
- Purity (Area %) ([1]; 2 weeks, 40° C./75% RH): 82.65 Area %
- Purity vs. initial (%) ([1]; 2 weeks, 40° C./75% RH): 91.6%
- Purity (Area %) ([1]; Initial): 90.20 Area %

SMILES: C[C@H](O)C(=O)C1=Nc2c(nc(N)[nH]c2=O)NC1 [Fumarate, sepiapterin]
- Stability in the solid form stability study of Example 2 [1]: high stability
- Form change ([1]; 1 week, 25° C./60% RH): No
- Purity (Area %) ([1]; 1 week, 25° C./60% RH): 99.39 Area %
- Purity vs. initial (%) ([1]; 1 week, 25° C./60% RH): 99.9%
- Form change ([1]; 1 week, 40° C./75% RH): No
- Purity (Area %) ([1]; 1 week, 40° C./75% RH): 99.15 Area %
- Purity vs. initial (%) ([1]; 1 week, 40° C./75% RH): 99.7%
- Purity (Area %) ([1]; 2 weeks, 25° C./60% RH): 99.25 Area %
- Purity vs. initial (%) ([1]; 2 weeks, 25° C./60% RH): 99.7%
- Purity (Area %) ([1]; 2 weeks, 40° C./75% RH): 98.98 Area %
- Purity vs. initial (%) ([1]; 2 weeks, 40° C./75% RH): 99.5%
- Purity (Area %) ([1]; Initial): 99.46 Area %
- Disproportionation in the disproportionation study [2]: no evidence of disproportionation
- Form change (residual solids, XRPD) ([2]; Medisca Oral Mix, 1 hr, listed as fumarate salt and/or co-crystal): No **
- Form change (residual solids, XRPD) ([2]; Medisca Oral Mix, 4 hr, listed as fumarate salt and/or co-crystal): No **
- Form change (residual solids, XRPD) ([2]; Medisca Oral Mix, 24 hr, listed as fumarate salt and/or co-crystal): No **
- Form of the residual solids in Medisca Oral Mix ([2]; Medisca Oral Mix, after 1 hour, listed as fumarate salt and/or co-crystal): crystallinity of residual solids decreased
- Form change (residual solids, XRPD) ([2]; Water, 1 hr, listed as fumarate salt and/or co-crystal): No
- Form change (residual solids, XRPD) ([2]; Water, 4 hr, listed as fumarate salt and/or co-crystal): No
- Form change (residual solids, XRPD) ([2]; Water, 24 hr, listed as fumarate salt and/or co-crystal): No
- Form of the residual solids in water ([2]; water, after 1 hour, listed as fumarate salt and/or co-crystal): no form change was observed
- Observation ([3]; Medisca Oral Mix, 1 hr): Turbid
- Purity (area %) of supernatant ([3]; Medisca Oral Mix, 1 hr): 99.74 area %
- pH ([3]; Medisca Oral Mix, 1 hr): 4.0
- Observation ([3]; Medisca Oral Mix, 4 hr): Turbid
- Purity (area %) of supernatant ([3]; Medisca Oral Mix, 4 hr): 99.60 area %
- pH ([3]; Medisca Oral Mix, 4 hr): 4.0
- Observation ([3]; Medisca Oral Mix, 24 hr): Turbid
- Purity (area %) of supernatant ([3]; Medisca Oral Mix, 24 hr): 96.54 area %
- pH ([3]; Medisca Oral Mix, 24 hr): 4.0
- Observation ([3]; Water, 1 hr): Turbid
- Purity (area %) of supernatant ([3]; Water, 1 hr): 98.39 area %
- pH ([3]; Water, 1 hr): 3.1
- Observation ([3]; Water, 4 hr): Turbid
- Purity (area %) of supernatant ([3]; Water, 4 hr): 98.19 area %
- pH ([3]; Water, 4 hr): 3.1
- Observation ([3]; Water, 24 hr): Turbid
- Purity (area %) of supernatant ([3]; Water, 24 hr): 95.43 area %
- pH ([3]; Water, 24 hr): 3.1

SMILES: C[C@H](O)C(=O)C1=Nc2c(nc(N)[nH]c2=O)NC1 [Gentisate, sepiapterin]
- Purity (Area %) ([1]; 1 week, 25° C./60% RH): 97.66 Area %
- Purity vs. initial (%) ([1]; 1 week, 25° C./60% RH): 103.5%
- Purity (Area %) ([1]; 1 week, 40° C./75% RH): 96.89 Area %
- Purity vs. initial (%) ([1]; 1 week, 40° C./75% RH): 102.7%
- Purity (Area %) ([1]; 2 weeks, 25° C./60% RH): 97.00 Area %
- Purity vs. initial (%) ([1]; 2 weeks, 25° C./60% RH): 102.8%
- Purity (Area %) ([1]; 2 weeks, 40° C./75% RH): 93.37 Area %
- Purity vs. initial (%) ([1]; 2 weeks, 40° C./75% RH): 102.1%
- Purity (Area %) ([1]; Initial): 94.35 Area %

SMILES: C[C@H](O)C(=O)C1=Nc2c(nc(N)[nH]c2=O)NC1 [Glycolate, sepiapterin]
- Purity (Area %) ([1]; 1 week, 25° C./60% RH): 98.93 Area %
- Purity vs. initial (%) ([1]; 1 week, 25° C./60% RH): 99.7%
- Purity (Area %) ([1]; 1 week, 40° C./75% RH): 98.54 Area %
- Purity vs. initial (%) ([1]; 1 week, 40° C./75% RH): 99.3%
- Purity (Area %) ([1]; 2 weeks, 25° C./60% RH): 98.86 Area %
- Purity vs. initial (%) ([1]; 2 weeks, 25° C./60% RH): 99.7%
- Purity (Area %) ([1]; 2 weeks, 40° C./75% RH): 98.52 Area %
- Purity vs. initial (%) ([1]; 2 weeks, 40° C./75% RH): 99.3%
- Purity (Area %) ([1]; Initial): 99.19 Area %
